Assay results taken from US4603142A, “Cholesterol lowering method of use” (Wisconsin Alumni Research Foundation, priority 1984, dated 1986).

Target: T1, HMG-CoA reductase (Homo sapiens, UniProt P04035)
T1 sequence (P04035 1-888): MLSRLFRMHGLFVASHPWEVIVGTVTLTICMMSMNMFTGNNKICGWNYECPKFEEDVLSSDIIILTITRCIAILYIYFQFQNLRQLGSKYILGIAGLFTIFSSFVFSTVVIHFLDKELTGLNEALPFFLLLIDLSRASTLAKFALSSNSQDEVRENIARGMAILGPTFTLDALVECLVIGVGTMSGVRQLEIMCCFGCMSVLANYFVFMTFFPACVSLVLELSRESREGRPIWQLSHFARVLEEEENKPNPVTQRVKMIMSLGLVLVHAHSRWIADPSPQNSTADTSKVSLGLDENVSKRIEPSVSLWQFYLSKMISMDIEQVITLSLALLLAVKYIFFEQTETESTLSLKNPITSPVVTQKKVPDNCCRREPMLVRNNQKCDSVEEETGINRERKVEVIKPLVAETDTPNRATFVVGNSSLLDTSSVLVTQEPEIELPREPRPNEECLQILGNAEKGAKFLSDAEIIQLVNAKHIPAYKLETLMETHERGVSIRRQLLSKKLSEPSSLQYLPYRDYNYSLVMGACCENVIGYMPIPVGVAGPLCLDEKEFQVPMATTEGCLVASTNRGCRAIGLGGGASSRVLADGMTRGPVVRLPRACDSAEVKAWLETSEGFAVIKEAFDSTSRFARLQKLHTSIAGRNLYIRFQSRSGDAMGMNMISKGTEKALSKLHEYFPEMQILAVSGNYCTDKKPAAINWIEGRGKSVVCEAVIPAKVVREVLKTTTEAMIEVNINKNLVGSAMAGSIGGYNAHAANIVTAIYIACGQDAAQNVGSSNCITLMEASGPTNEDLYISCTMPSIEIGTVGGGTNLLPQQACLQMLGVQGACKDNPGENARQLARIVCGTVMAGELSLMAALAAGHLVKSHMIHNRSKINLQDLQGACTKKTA
Assay: Hepatic HMG-CoA reductase activity in 3-week-old broiler male chickens fed supplemented corn diet
Assay type: in vivo, chicken
Design: preparing subcellular fractions of liver and assay procedures for beta-hydroxy-beta-methylglutaryl coenzyme A (HMG Co-A) reductase; from tissue; host or cells: chicken liver (microsomal fraction)
Conditions: liver; for HMG-CoA Reductase: mean ± SD, N = 9
Description: These responses were attributed to the presence in the small grains of relatively high concentrations of beta-D-glucans and pentosans. A long-standing interest in lipid metabolism prompted us to examine certain lipogenic and cholesterolgenic enzymes in the tissues of these birds. Methods used for handling blood samples, preparing subcellular fractions of liver and assay procedures for beta-hydroxy-beta-methylglutaryl coenzyme A (HMG Co-A) reductase, fatty acid synthetase (FAS), plasma cholesterol and triglycerides and the statistical treatment of the data have been described [Qureshi AA et al. (1980): Regulation of lipid metabolism in chicken livers by dietary cereals, J Nutr 110:388-393].
For large scale preparation of these compounds, 10 grams of the petroleum ether soluble fraction of HPBF were dissolved in 10 ml petroleum ether and applied to a 90×3.5 cm silicic acid column (Bio-Silica, 100-200 mesh). The column was washed with 2,500 ml petroleum ether followed by stepwise elution with increasing amounts of ether in petroleum ether. Fraction 8 of the column corresponded to HPLC fraction 5. A concentration-dependent suppression of HMG Co-A reductase activity and enhancement of FAS activity was noted within this range. Serum total and LDL cholesterol levels also fell in a dose-dependent response. […] In a companion experiment, using the same control birds, the effect of cholesterol inhibitor I at 5 ppm is compared to the effect of the petroleum ether solubles of HPBF at 20% equivalent on weight gain, HMG Co-A reductase and FAS activities, serum cholesterol and serum triglyceride levels (Table 2). […] Serum triglyceride levels reflected the influence of the diet on FAS activity. […] Cholesterol inhibitor I was a more powerful suppressor of LDL cholesterol (Table 2).
^1 Feeding period was 3 weeks; Time of killing was 0800; Data
expressed as mean ± SD; N = 9 chickens per group; HMGCoA reductase =
hydroxy-methyl-Glutaryl-Coenzyme A reductase.
^2 pmoles of mevalonic acid synthesized per minute per mg of […]

[1] = 2.5 ppm in corn diet, fed 3 weeks
[2] = 5.0 ppm in corn diet, fed 3 weeks
[3] = 10.0 ppm in corn diet, fed 3 weeks
[4] = 15.0 ppm in corn diet, fed 3 weeks
[5] = 20.0 ppm in corn diet, fed 3 weeks

HMG-CoA Reductase, percentage of control [1]: 87 Percentage of respective contr | HMG-CoA Reductase [1]: 172 ± 12 pmoles of mevalonic acid synth | HMG-CoA Reductase, percentage of control [2]: 81 Percentage of respective contr | HMG-CoA Reductase [2]: 161 ± 12 pmoles of mevalonic acid synth | HMG-CoA Reductase, percentage of control [3]: 73 Percentage of respective contr | HMG-CoA Reductase [3]: 144 ± 9 pmoles of mevalonic acid synth | HMG-CoA Reductase, percentage of control [4]: 68 Percentage of respective contr | HMG-CoA Reductase [4]: 135 ± 8 pmoles of mevalonic acid synth | HMG-CoA Reductase, percentage of control [5]: 66 Percentage of respective contr | HMG-CoA Reductase [5]: 130 ± 6 pmoles of mevalonic acid synth | HMG-CoA Reductase (corn diet + 5 ppm (Table 2)): 134 ± 6 pmoles of mevalonic synthesize
Structure (SMILES): CC(C)=CCC/C(C)=C/CC/C(C)=C/CC[C@]1(C)CCc2c(C)c(O)c(C)c(C)c2O1 [Cholesterol inhibitor I, 2,5,7,8-tetramethyl-2 (4,8, 12-trimethyltrideca-3,7, 11-trienyl)chroman-6-ol]
